{"source": "patent US10543250B2", "about": "“Antimicrobial fusion peptides” (Los Angeles Biomedical Research Institute at Harbor-UCLA …, priority 2015, dated 2020)", "key": {"[1]": {"tested_on": "MDRAB clinical isolate HUMC-1", "experiment": "Neutropenic murine model of MDRAB pneumonia", "type": "in vivo, Acinetobacter baumannii", "settings": "for survival: neutropenic mice, aerosolized MDRAB HUMC-1, treatment for 3d, survival monitored to day 21, peptide 12.5 mg/kg IV qd, imipenem 15 mg/kg IP bid", "procedure": "Neutropenic mice (cortisone acetate [250 mg/kg; subQ]+cyclophosphamide [200 mg/kg; IP] on study days-2, +3, and +8) were infected on day 0 (aerosolized; MDRAB clinical isolate HUMC-1; 5×10^8 CFU; lung Cx-positive). Treatment initiated 4 hr or 24 hr post-infection and continued for 3d. Groups:control (PBS); imipenem (15 mg/kg; IP; bid); γ-RP-1 (12.5 mg/kg; IV; qd); γ-RP-1 (12.5 mg/kg; IV; qd). Survival was then monitored to day 21. At end point or 21d, lungs and spleens were cultured. Outcomes were compared by non-parametric analysis. All studies adhered to institutional and AAALAC animal care policies."}, "MDRAB": {"tested_on": "MDRAB", "experiment": "Biomatrix assay: efficacy in human blood, plasma or serum", "type": "cell-based, Acinetobacter baumannii", "settings": "human blood ex vivo", "procedure": "Efficacies of RP-1 and γ-RP-1 in human blood, plasma, or serum were assessed. Peptide was added to biomatrix simultaneously with MDRAB (final inoculum 10^5 CFU/ml; peptide range […]; volume 100 μl). Controls were performed using Mueller Hinton broth (MHB; CLSI). Following incubation (constant agitation; 2 h, 37° C.), survival was quantified by culture (n=3) upon blood agar and defined as CFU/ml. Independent minimum, n=2."}, "Peptide pI": {"experiment": "Peptide pI", "type": "physicochemical", "procedure": "Antimicrobial agents: RP-1 (pI/Mw: 10.82/2162.78 Da) is an 18-amino synthetic peptide derived from PF-4 family kinocidins. γ-RP-1 (pI/Mw: 10.64/4444.5 Da) is a 39-amino synthetic peptide comprising a CXCL4 kinocidin γ-core motif-RP-1 construct. Stock peptides dissolved in sterile ddH2O were diluted in suitable buffers. Antibiotics were purchased as purified powder and re-suspended in PBS per the manufacturer guidelines."}, "[2]": {"tested_on": "P. berghei ANKA luciferase", "experiment": "In vivo antimalarial efficacy in infected mice", "settings": "12.5 mg/kg, IV treatment daily for 5 days, compared to chloroquine at the same concentration", "description": "FIGS. 15 and 16 show the in vivo antimalarial activity of γ-RP-1 on Luciferase-expressing P. berghei ANKA (FIG. 15: single dose; FIG. 16: double dose). CQ: chloroquine."}, "3D7 P. falciparum": {"tested_on": "3D7 P. falciparum", "experiment": "In vitro antimalarial activity", "type": "cell-based", "settings": "at 12.5 mg/ml after incubation for 96 hour"}, "[3]": {"tested_on": "wide panel of human pathogens", "experiment": "Efficacy of γ-RP-1 variants against panel of human pathogens at pH 5.5 and 7.5 (Example 6)", "type": "cell-based", "settings": "pH 5.5 and 7.5, FIG. 16A-B", "procedure": "The efficacy of RP-1 and γ-RP-1, along with a number of peptide variants and suitable control, was tested against a wide panel of human pathogens.\nIn another experiments, the following peptides were tested."}, "[4]": {"tested_on": "wide panel of Gram-negative human pathogens", "experiment": "Efficacy against panel of Gram-negative human pathogens at pH 5.5 and 7.5 (Example 4)", "type": "cell-based", "settings": "compared to any other peptide tested", "procedure": "The efficacy of RP-1 and γ-RP-1, along with a number of peptide variants and suitable control, was tested against a wide panel of Gram-negative human pathogens."}}, "note": "“Also recorded” adds a separate entry of the source."}
{"molecule": "C[C@@H](O)[C@H]1C(=O)N2C(C(=O)O)=C(SCCN=CN)C[C@H]12", "note": "[imipenem, reference compound]", "values": [{"measurement": "survival", "setting": "[1]", "result": 16, "unit": "%"}]}
{"molecule": "γ-RP-1 (CPTAQLIATLKNGRKICLDLQALYKKFKKKLLKSLKRLG)", "values": [{"measurement": "efficacy in human blood", "setting": "MDRAB", "result": "significant efficacy; also recorded: greater efficacy"}, {"measurement": "pI", "setting": "Peptide pI", "result": 10.64}, {"measurement": "antimalarial activity in vivo", "setting": "[2]", "result": "moderate antimalarial activity"}, {"measurement": "in vitro antimalarial effects, dose-response curve", "setting": "3D7 P. falciparum", "result": "excellent IC50 curve"}, {"measurement": "efficacy compared with RP-1 across bacterial species", "setting": "[3]", "result": "higher efficacy than RP-1"}, {"measurement": "Total MDRAB burden (CFU) in lungs and spleens, reduction", "setting": "[1]; as compared to control or imipenem treatments alone", "result": "> 2", "unit": "log CFU"}, {"measurement": "efficacy vs. MDRAB in a murine model of neutropenic pneumonia", "setting": "[1]; in vivo", "result": "significant efficacy"}, {"measurement": "survival", "setting": "[1]", "result": 72, "unit": "%"}, {"measurement": "efficacy against individual organisms and across the broader panel", "setting": "[4]", "result": "overall best efficacy"}]}
